{"source": "patent US6407125B1", "about": "“Pharmacological agent and method of treatment” (Novactyl, Inc., priority 1995, dated 2002)", "key": {"WI-38 cells [1]": {"tested_on": "WI-38 cells", "experiment": "Growth of WI-38 cells (total cell protein, cell number)", "type": "cell-based", "conditions": "for Monolayer Protein: WI-38, fusaric acid 0.5 mM", "procedure": "(§1) Cells were plated at 1.5×10^5 cells/60-mm dish; 48 hours later, the medium was removed, and new media with or without 3 mM picolinic acid was added. Total cell protein was determined at the indicated times; each point is the average of triplicate measurements from 2 cultures.\n(§2) In initial experiments to examine the effects of fusaric acid on cell growth and viability, WI-38 and LoVo cells were incubated for 24 to 72 hours in medium with or without various doses of fusaric acid (0.1-1 mM). The growth of both WI-38 and LoVo cells was inhibited by 500 μM fusaric acid in a time and dose dependent manner, as shown below in Table 2."}, "WI-38 cells [2]": {"tested_on": "WI-38 cells", "experiment": "Viability of WI-38 cells (trypan blue exclusion)", "type": "cell-based", "conditions": "500 μM fusaric acid", "procedure": "To examine WI-38 cell viability in greater detail, the effects of fusaric acid were studied in logarithmically growing and contact inhibited confluent cells (Tables 2 and 3). In logarithmically growing WI-38 cells approximately 76% of the cells were viable after 30 hours of treatment with fusaric acid. When the cells were treated for 78 hours, only 26% of the cell population survived the pronounced cytotoxic actions of fusaric acid."}, "LoVo cells [3]": {"tested_on": "LoVo cells", "experiment": "Growth of LoVo cells (total cell protein, cell number, DNA synthesis)", "type": "cell-based, human", "conditions": "for Monolayer Protein: fusaric acid 0.5 mM", "procedure": "as §1, §2\nAfter 30 hours of treatment with 500 μM fusaric acid, there was a prominent decrease in cell number. DNA synthesis was completely (100%) inhibited by 24 hours. When treated with 500 μM fusaric acid, the majority of the LoVo cells acquired a rounded morphology by 48 hours.\nHowever, after 100 hours, an increase in cell number was noted after 25 additional hours."}, "LoVo cells [4]": {"tested_on": "LoVo cells", "experiment": "Viability of LoVo cells (trypan blue exclusion)", "type": "cell-based, human", "conditions": "500 μM fusaric acid", "procedure": "As in the case of WI-38, LoVo cell viability after fusaric acid treatment was investigated in logarithmically growing and confluent cells, as shown in Tables 2 and 3. In logarithmically growing LoVo cells, approximately 38% of the attached cells were viable after 30 hours of treatment with fusaric acid. When the cells were treated for 78 hours, only 4.5% of the cell population survived the pronounced cytotoxic actions of fusaric acid. […] Thus, LoVo cells are much more sensitive to the cytotoxic actions of fusaric acid in both growing and confluent population of cells in comparison to normal WI-38 cells."}, "KB cells [5]": {"tested_on": "KB cells", "experiment": "Growth of KB cells", "type": "cell-based, human", "conditions": "48 hours in 500 μM"}, "KB cells [6]": {"tested_on": "KB cells", "experiment": "Viability of KB cells (trypan blue exclusion)", "type": "cell-based, human", "conditions": "500 μM fusaric acid", "procedure": "To examine KB cell viability in greater detail, the effects of fusaric acid were studied in logarithmically growing and confluent cells. In logarithmically growing KB cells 70% of the cells were viable after 48 hours in 500 μtM fusaric acid. […] Thus, in contrast to LoVo cells, a significant proportion of the population of growing (70%) cells and virtually all (95%) of confluent KB cells resisted the pronounced cytotoxic action of fusaric acid (See Tables 3 and 4, above)."}, "[7]": {"tested_on": "human breast adenocarcinoma MDA-468 cell", "experiment": "Growth of MDA-468 cells (cell number, DNA synthesis)", "type": "cell-based", "conditions": "MDA-468, 500 μM fusaric acid", "procedure": "After 12-24 hours of treatment with 500 μM fusaric acid, there was no further increase in cell number. […] These floating cells were not viable. Within 30 hours of treatment there was a 65% decrease in cell number. […] After 96 hours, less than 10% of the original population remained attached to the dish and no change in cell number was noted after one additional week."}, "MDA-468 cells": {"tested_on": "MDA-468 cells", "type": "cell-based, human", "procedure": "As in the case of WI-38, MDA-468 cell viability after fusaric acid treatment was investigated in logarithmically growing and confluent cells. In logarithmically growing MDA-468 cells, less than 20% of the attached cells were viable after 30 hours of treatment with fusaric acid. When the cells were treated for 48 hours, only 0.1% of the cell population survived the pronounced cytotoxic actions of fusaric acid. […] Thus, MDA-468 cells are extremely sensitive to the cytotoxic actions of fusaric acid in both growing and confluent population of cells in comparison to normal WI-38 lines studied."}, "Prostatic adenocarcinoma": {"tested_on": "Prostatic adenocarcinoma", "experiment": "Viability of other human carcinoma cell types", "type": "cell-based", "conditions": "48 hours of treatment", "procedure": "(§3) As in previous examples, the following human cell lines were inhibited by similar concentrations of fusaric acid: Prostatic adenocarcinoma, skin carcinoma, colon carcinoma, liver adenocarcinoma and lung adenocarcinoma. For all these cell types, cell viability decreased by approximately 60% after 48 hours of treatment with fusaric acid."}, "colon carcinoma": {"tested_on": "colon carcinoma", "experiment": "Viability of other human carcinoma cell types", "type": "cell-based", "conditions": "48 hours of treatment", "procedure": "as §3"}, "liver adenocarcinoma": {"tested_on": "liver adenocarcinoma", "experiment": "Viability of other human carcinoma cell types", "type": "cell-based", "conditions": "48 hours of treatment", "procedure": "as §3"}, "lung adenocarcinoma": {"tested_on": "lung adenocarcinoma", "experiment": "Viability of other human carcinoma cell types", "type": "cell-based", "conditions": "48 hours of treatment", "procedure": "as §3"}, "skin carcinoma": {"tested_on": "skin carcinoma", "experiment": "Viability of other human carcinoma cell types", "type": "cell-based", "conditions": "48 hours of treatment", "procedure": "as §3"}}, "data": [{"smiles": "CCCCc1ccc(C(=O)O)nc1", "note": "[fusaric acid]", "values": [{"measurement": "Monolayer Protein", "setting": "WI-38 cells [1]; 24 h", "value": 195, "unit": "μg/dish"}, {"measurement": "Monolayer Protein", "setting": "WI-38 cells [1]; 48 h", "value": 275, "unit": "μg/dish"}, {"measurement": "Monolayer Protein", "setting": "WI-38 cells [1]; 72 h", "value": 345, "unit": "μg/dish"}, {"measurement": "time to resumed growth after removal of fusaric acid", "setting": "WI-38 cells [1]; WI-38, 30 hours in 500 μM", "value": 125, "unit": "h"}, {"measurement": "decrease in cell number after removal of fusaric acid", "setting": "WI-38 cells [1]; WI-38, 30 hours in 500 μM, then 4 days in normal media", "value": 30, "unit": "%"}, {"measurement": "cells surviving after removal of fusaric acid", "setting": "WI-38 cells [1]; WI-38, remaining cells after 30 hours in 500 μM", "value": "> 95", "unit": "%"}, {"measurement": "% Survival", "setting": "WI-38 cells [2]; WI-38, confluent cells, 48 h", "value": 100, "unit": "%"}, {"measurement": "% Survival", "setting": "WI-38 cells [2]; WI-38, logarithmic growth, 78 h", "value": 26, "unit": "%"}, {"measurement": "cytotoxicity in LoVo cells", "setting": "LoVo cells [3]; 1 mM fusaric acid, by 24 hours", "value": "extensive cytotoxicity"}, {"measurement": "inhibition at 500 µM", "setting": "LoVo cells [3]; Homo sapiens, LoVo, 24 h, read-out: inhibition of DNA synthesis", "value": 100, "unit": "%"}, {"measurement": "decrease in cell number", "setting": "LoVo cells [3]; LoVo, 500 μM fusaric acid, within 30 hours of treatment", "value": 60, "unit": "%"}, {"measurement": "Monolayer Protein", "setting": "LoVo cells [3]; LoVo, 24 h", "value": 135, "unit": "μg/dish"}, {"measurement": "Monolayer Protein", "setting": "LoVo cells [3]; LoVo, 48 h", "value": 90, "unit": "μg/dish"}, {"measurement": "Monolayer Protein", "setting": "LoVo cells [3]; LoVo, 72 h", "value": 101, "unit": "μg/dish"}, {"measurement": "% Survival", "setting": "LoVo cells [4]; confluent cells, 48 h", "value": 40, "unit": "%"}, {"measurement": "% Survival", "setting": "LoVo cells [4]; logarithmic growth, 78 h", "value": 4.5, "unit": "%"}, {"measurement": "time to resumed growth after removal of fusaric acid", "setting": "KB cells [5]", "value": 27, "unit": "h"}, {"measurement": "viability at 500 µM", "setting": "KB cells [6]; Homo sapiens, logarithmically growing, 48 hours, read-out: viable cells", "value": 70, "unit": "%"}, {"measurement": "% Survival", "setting": "KB cells [6]; confluent cells, 48 h", "value": 95, "unit": "%"}, {"measurement": "inhibition at 500 µM", "setting": "[7]; Homo sapiens, by 24 hr", "value": 100, "unit": "%"}, {"measurement": "decrease in cell number", "setting": "[7]; within 30 hours", "value": 65, "unit": "%"}, {"measurement": "cells surviving", "setting": "MDA-468 cells; MDA-468, confluent, 500 μM fusaric acid, 48 hours", "value": 10, "unit": "%"}, {"measurement": "viable attached cells", "setting": "MDA-468 cells; MDA-468, logarithmically growing, fusaric acid, 30 hours", "value": "less than 20%"}, {"measurement": "cell population surviving", "setting": "MDA-468 cells; MDA-468, logarithmically growing, fusaric acid, 48 hours", "value": 0.1, "unit": "%"}, {"measurement": "decrease in cell viability", "setting": "Prostatic adenocarcinoma", "value": "approximately 60%"}, {"measurement": "decrease in cell viability", "setting": "colon carcinoma", "value": "approximately 60%"}, {"measurement": "decrease in cell viability", "setting": "liver adenocarcinoma", "value": "approximately 60%"}, {"measurement": "decrease in cell viability", "setting": "lung adenocarcinoma", "value": "approximately 60%"}, {"measurement": "decrease in cell viability", "setting": "skin carcinoma", "value": "approximately 60%"}]}]}
